Assay results published in ChEMBL document CHEMBL4346714, “Multitarget PPARγ agonists as innovative modulators of the metabolic syndrome” (Eur J Med Chem, 2019).

Experiments:
[1] = target: T1, Peroxisome proliferator-activated receptor gamma (Homo sapiens) (UniProt P37231); experiment: Agonist activity at PPARgamma (unknown origin) at 10 uM by luciferase reporter gene assay relative to control
T1 sequence (whole entry): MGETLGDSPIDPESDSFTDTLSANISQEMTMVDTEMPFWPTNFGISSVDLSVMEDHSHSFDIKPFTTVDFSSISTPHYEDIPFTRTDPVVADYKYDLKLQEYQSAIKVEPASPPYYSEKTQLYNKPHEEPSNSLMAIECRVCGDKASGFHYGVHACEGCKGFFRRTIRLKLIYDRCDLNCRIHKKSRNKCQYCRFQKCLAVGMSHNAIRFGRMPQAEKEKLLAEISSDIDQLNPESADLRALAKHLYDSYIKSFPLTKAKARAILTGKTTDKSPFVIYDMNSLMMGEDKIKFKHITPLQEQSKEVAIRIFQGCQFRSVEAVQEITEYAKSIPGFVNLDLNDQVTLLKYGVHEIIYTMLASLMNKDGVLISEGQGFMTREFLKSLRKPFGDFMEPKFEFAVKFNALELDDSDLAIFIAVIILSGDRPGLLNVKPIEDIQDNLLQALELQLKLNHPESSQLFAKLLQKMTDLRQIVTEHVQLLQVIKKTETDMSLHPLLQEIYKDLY

[2] = target: T2, Hexokinase-4 (Homo sapiens) (UniProt P35557); experiment: Activation of glucokinase (unknown origin) at 10 uM relative to control
T2 sequence (whole entry): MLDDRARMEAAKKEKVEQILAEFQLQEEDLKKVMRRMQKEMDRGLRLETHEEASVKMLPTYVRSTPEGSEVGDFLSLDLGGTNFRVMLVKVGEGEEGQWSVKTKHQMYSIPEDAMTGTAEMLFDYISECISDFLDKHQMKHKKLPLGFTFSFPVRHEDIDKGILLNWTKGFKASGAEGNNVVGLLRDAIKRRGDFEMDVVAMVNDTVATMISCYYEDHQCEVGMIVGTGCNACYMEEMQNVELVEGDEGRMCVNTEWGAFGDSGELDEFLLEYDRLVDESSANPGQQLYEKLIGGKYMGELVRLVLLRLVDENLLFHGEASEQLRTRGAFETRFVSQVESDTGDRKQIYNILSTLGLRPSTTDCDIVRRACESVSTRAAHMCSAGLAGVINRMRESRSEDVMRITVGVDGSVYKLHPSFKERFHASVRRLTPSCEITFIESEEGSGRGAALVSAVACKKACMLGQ

[3] = target: T2, Hexokinase-4 (Homo sapiens); experiment: Activation of recombinant human glucokinase assessed as conversion of D-glucose to D-glucose-6-phosphate dehydrate at 10 uM by G6PDH/NADP coupled assay relative to control
[4] = target: T1, Peroxisome proliferator-activated receptor gamma (Homo sapiens); experiment: Transactivation of PPARgamma (unknown origin) expressed in HEK293 cells at 10 uM after 24 to 48 hrs by luciferase reporter gene assay relative to control; type: cell-based

Row | Efficacy [1] | fold change (FC) [2] | fold change (FC) [3] | Efficacy [4] | Compound
1 | 48% | 2.9 | – | – | CC(C)OC(=O)c1ccc(NC(=O)Cc2ccc(/C=C3\SC(=O)NC3=O)cc2[N+](=O)[O-])nc1
2 | 47.1% | 2.9 | – | – | O=C(Cc1ccc(/C=C2\SC(=O)NC2=O)cc1[N+](=O)[O-])Nc1ccccn1
3 | 47.4% | 2.7 | – | – | CCOC(=O)c1ccc(NC(=O)Cc2ccc(/C=C3\SC(=O)NC3=O)cc2[N+](=O)[O-])nc1
4 | – | – | 1.7 | 52.7% | CCCOc1ccc(OCc2cccc(F)c2)cc1C(=O)Nc1ccc(C(=O)O)cn1
